Experimental data from patent US20060241178A1, “Compositions and methods for treating lung cancer” (priority 2002, published 2006).
Where two headings read alike, the source gives them in different places.

Experiments:
[1] = test system: alveolar epithelium cells of lung; experiment: In situ end-labeling (ISEL/TUNEL) of apoptosis in lung sections; assay type: in vivo, A/J mice
[2] = test system: JNK 1 and 2; experiment: Western blot of lung total proteins: JNK phosphorylation; assay type: in vivo, A/J mice; conditions: lung tissue 21 days after B(a)P
[3] = Stability of conjugates in AIN-76A diet (methanol extraction, HPLC); assay type: physicochemical; conditions: stored at 4° C. under nitrogen
Method: The ITC conjugates were incorporated (15 μmol/g diet) into AIN-76A diets (5% corn oil) by mixing with dextrose prior to diet preparation. […] After mixing with dextrose, the solvent was removed using a rotary evaporator and further dried using a vacuum pump (2-3 h). Diets were prepared in 1-2 kg batches, and were stored at 4° C. in a container purged with nitrogen. […] Stability was determined by extraction of 0.5 g portions of the diet with 2.5 ml methanol (2×). The methanol extracts were combined and a 1 ml aliquot was filtered using a 0.47 μm syringe filter.

[4] = test system: NNK/B(a)P-induced lung adenomas and adenocarcinomas; conditions: for Adenocarcinoma Incidence (%) / Adenocarcinoma Multiplicity mean ± SD / Adenoma Incidence (%) / Adenoma Multiplicity mean ± SD: preliminary
Method: The test compounds were given in the diet on week 21 after beginning of a weekly dose of a mixture of NNK/B(a)P: 3 μmol each (621 μg NNK and 756 μg B(a)P) in 0.1 ml cottonseed oil for eight weeks (a total of 8 doses) (groups 1 to 10); only vehicle (cottonseed oil) for groups 11 to 15. Animals were then given experimental diet for 20 weeks until week 40. Four mice in groups 1, 2, 4, 6, 8, and 10 (see Table 1) were sacrificed on weeks 20, 38, and 40. The bioassay was terminated on week 52. If sufficient numbers of tumors were developed in mice killed on week 40, the bioassay was terminated at week 40. Tumors (adenomas and carcinomas) were quantified by multiplicity and incidence. At sacrifice, livers and lungs were harvested and the tissues rinsed in autoclaved PBS, stored in labeled foil, and snap frozen in liquid nitrogen. These tissues both tumorous and non-tumorous were processed by histology for biomarker studies (TUNEL, PCNA,p53, […] kinases, etc.). Lungs were examined by histology at termination (52 week or 40 week) for adenomas and carcinomas).
In this study, the potential protective effects of ITCs and ITC-NACs against progression of lung adenomas to malignant tumors were investigated. Lung tumors were induced in A/J mice with 3 μmol B(a)P plus 3 μmol NNK (gavage once/wk, 8 wks); mice were maintained on AIN-76A semi-purified diets. […] Diets containing PEITC (phenethyl ITC) or SFN (sulforaphane), each at 3 mmol/kg and 1.5 mmol/kg diet; PEITC-NAC or SFN-NAC at 8 mmol/kg and 4 mmol/kg diet; and NAC at 8 mmol/kg diet were then provided to groups of 28 mice (high dose) or 20 mice (low dose) during weeks 20 to 40 after initiation. Four mice in each high dose treatment group were killed during weeks 28 and 40 to monitor tumor incidence and progression; lung tissues were used for molecular studies. Remaining mice were killed at 40 weeks for histopathological examination. […] To assess molecular events occurring during the treatments, lung RNA of mice treated with B(a)P+NNK/control diet and B(a)P+NNK/PEITC-NAC high dose diet was examined using a Mouse Cancer Pathway Finder Gene Array.

[5] = test system: c-Jun (AP-1 pathway) and Akt pathway genes; experiment: Mouse Cancer Pathway Finder Gene Array on lung RNA; assay type: in vivo, A/J mice; conditions: PEITC-NAC high dose diet vs control diet
Description: Some mice also had developed forestomach masses. […] Findings involving other pathways will be presented.

[6] = test system: A549 cells; experiment: Flow cytometry cell cycle analysis / survival of A549 cells; assay type: cell-based, human
Method: Cell Lines: The human lung adenocarcinoma cell line A549 was obtained from the American Type Culture Collection (ATCC) (Bethesda, Md.). […] Cells were grown at 37° C. with 5% CO2.
Reagents: The PEITC was obtained from Aldrich (Milwaukee, Wis.) and its N-acetylcysteine conjugate was synthesized in house by the Organic Synthesis Facility using the method described previously (Kassahun et al., Chem Res Toxicol 1997, 10(11):1228-33). Unless specified otherwise, the A549 cells were treated with 10 or 25 μM of PEITC-NAC. TPA (12-O-tetradecanoylphorbol-13-acetate) was purchased from Sigma (St. Louis, Mo.).
Cell cycle analysis: A549 cells were harvested following 16 and 24 h treatment with various concentrations of PEITC-NAC by fixation in 70% ethanol. Cellular DNA was determined following staining with 1 μg/ml of 4,6-diamidino-2-ephynylindole (DAPI, Molecular Probes, Eugene, Oreg.) dissolved in PBS. Cellular blue fluorescence was measured using the Elite ESP flow cytometer/cell sorter (Coulter, Miami, Fla.) following excitation with a Ni/Cad UV light emitting laser. The data were collected and DNA histograms were deconvoluted using Multicycle software (Phoenix Flow Systems, San Diego, Calif.).

[7] = test system: A549/TAM67 cells; experiment: Apoptosis in A549/TAM67 transfectants (morphology, DNA fragmentation, annexin V, PARP Western blot); assay type: cell-based, human; conditions: 25 μM
[8] = test system: A549/c-jun cells; experiment: Apoptosis in A549/c-jun transfectants (morphology, DNA fragmentation, annexin V, PARP Western blot); assay type: cell-based, human; conditions: 25 μM
[9] = test system: A549 cells; experiment: Cell cycle phase-specific DNA strand breaks (TUNEL) in A549 cells; assay type: cell-based, human
Method: Detection of cell cycle phase-specific DNA strand breaks (“TUNEL”): A549 cells were fixed with 1% formaldehyde for 15 min and then permabilized by post-fixation in 70% ethanol. The presence of in situ DNA strand breaks, a characteristic feature of apoptosis was detected by labeling them with a fluorochrome-conjugated nucleotide in the reaction catalyzed by the terminal deoxynucleotidyl transferase; cellular DNA was counterstained with DAPI. The kit provided by Phoenix Flow Systems (San Diego, Calif.) was used in this assay. This method is also described in detail elsewhere (Gorczyca et al., Internat J. Oncol. 1992, 1:639-648). Green and red fluorescence of cells probed for DNA strand breaks and DNA content was measured using a FACScan flow cytometer (Becton Dickinson, San Jose, Calif.) with standard settings of green (strand breaks) and red (DNA) fluorescence detection. To calculate the percentage of apoptotic cells in respective phases of cell cycle, DNA content frequency histograms were deconvoluted using CELLQuest software.
Apoptosis induced by PEITC-NAC occurs predominantly in dividing cells. […] DNA strand breaks during apoptosis was detected by end-labeling, which was combined with analysis of the cellular DNA content. […]

[10] = high dose (3 or 8 mmol/kg diet)
[11] = low dose (1.5 or 4 mmol/kg diet)

CC(=O)N[C@@H](CSC(=S)NCCc1ccccc1)C(=O)O [PEITC-NAC, N-acetylcysteine Conjugate of phenethyl isothiocyanate]
increase in apoptosis, non-tumorous lung tissue ([1]; after 140 days): 2.3 fold | apoptotic index, fold elevation ([1]; lung tissue at 84 days, before tumors appeared): approximately 2 fold | JNK 1 (p46) phosphorylation level [2]: increase | JNK 2 (p54) phosphorylation [2]: only slightly induced | stability in diet [3]: stable for at least one month | incidence of adenocarcinoma/squamous carcinoma ([4]; 8 mmol/kg diet, initiated control group 60%): 20% | mean numbers of lung adenomas compared with carcinogen control mice ([4]; at termination): decreases were significant | Adenocarcinoma Incidence (%) [4, 10]: 5/31 (16.1%) | Adenocarcinoma Multiplicity mean ± SD [4, 10]: 0.52 ± 1.50 | Adenoma Incidence (%) [4, 10]: 30/31 (96.8%) | Adenoma Multiplicity mean ± SD ([4]; high dose (PEITC, SFN 3 mmol/kg diet; PEITC-NAC, SFN-NAC, NAC 8 mmol/kg diet)): 8.19 ± 3.99 | Adenocarcinoma Incidence (%) [4, 11]: 4/19 (21.05%) | Adenocarcinoma Multiplicity mean ± SD [4, 11]: 0.53 ± 1.14 | Adenoma Incidence (%) [4, 11]: 17/19 (89.47%) | Adenoma Multiplicity mean ± SD ([4]; low dose (PEITC, SFN 1.5 mmol/kg diet; PEITC-NAC, SFN-NAC 4 mmol/kg diet)): 7.58 ± 3.88 | malignant tumor multiplicity ([4]; low dose groups, initiated control group 2.1): 0.9 tumors/mouse | c-Jun expression (AP-1 pathway) and Akt pathway genes [5]: up-regulated | cells undergoing apoptosis (sub-G1 peak) ([6]; 10 μM for 24 h): 4.5% | cell survival ([6]; 100 μM, 24 h): no lung cells appear to survive | PARP 89 kD cleavage fragment ([7]; 3 h): a defined 89 kD band | cell survival (annexin V-Cy3 / 6-CFDA staining) ([7]; 20 h): nearly no cell survival | PARP protein ([7]; 24 h): completely degraded | cell survival (morphology, DNA fragmentation) ([7]; 24 h): most TAM67 transfectants had already died | PARP 89 kD cleavage fragment ([8]; 3 h): the most evident cleavage | PARP protein ([8]; 24 h): maintained a significant levels of intact PARP protein | apoptosis compared with control-vector transfected cells ([8]; 24 h): enhanced apoptosis | cell cycle distribution ([9]; 25 μM, 16 h): a substantial portion of the cells accumulate in G2M phase | apoptotic cells by DNA strand break labeling ([9]; 50 μM, 24 h): a distinct population of apoptotic cells
